Test systems include SNB-75 CNS; HT29 colon; EKVX NSCLC; CAKI-1 renal; HOP-62 NSCLC; NCI-H23 lung; HS 578T breast; M14 melanoma; KM12 colon; MDA-N; CCRF-CEM leukemia.
Assay in all cases: growth of human tumour cells (NCI), 48 h

Several values for one entry are separate records, joined by “and”; a condition that tells them apart may be missing. Equal entries are not always repeated.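 48-hour exposure; five concentrations; linearly interpolated endpoints. GI50: concentration for 50% inhibition of growth. At the TGI there is no net growth.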 Where a SMILES comes first, the peptide text is derived from it. Side-chain parts run from the residue outwards. The star is where a group is joined. Cbz = O=C(OCc1ccccc1)*; Boc = CC(C)(C)OC(=O)*

Turning to `C[N+](C)(N)Cc1csc(-c2ccc(Cl)cc2)n1`, the TGI with SNB-75 CNS, with HT29 colon, in the assay with EKVX NSCLC, in the assay with CAKI-1 renal, in the assay with HOP-62 NSCLC and with NCI-H23 lung was greater than 100 µM each time. Also, the TGI in the assay with HS 578T breast, in the assay with M14 melanoma, in the assay on KM12 colon and with MDA-N was greater than 100 µM throughout.
On to `O=C1O[C@H](COC(=O)c2ccccc2)[C@@H](OC(=O)c2ccccc2)C=C1OC(=O)c1ccccc1`, for which the TGI in the assay with SNB-75 CNS is greater than 100 µM; in the assay on CCRF-CEM leukemia it was 41.9 µM; in the assay on EKVX NSCLC, 34.3 µM; with CAKI-1 renal, 51.2 µM; in the assay with HOP-62 NSCLC, 39.4 µM; in the assay with NCI-H23 lung, 42.6 µM. For the same compound, the TGI was greater than 100 µM in the assay with HS 578T breast, 31.9 µM in the assay on M14 melanoma, greater than 100 µM in the assay with KM12 colon and greater than 100 µM with MDA-N.
In the case of `CCOC(=O)/C(=C\NC#N)c1nc2ccccc2[nH]1`, the TGI in the assay on SNB-75 CNS, in the assay with HT29 colon, in the assay with EKVX NSCLC, in the assay with CAKI-1 renal, in the assay on HOP-62 NSCLC and in the assay with NCI-H23 lung was greater than 100 µM throughout. Besides, the TGI in the assay with M14 melanoma, with KM12 colon and in the assay with MDA-N was greater than 100 µM each time.
For the compound `CN1CCN(c2ccc3nc(-c4ccc5nc(-c6ccc(N(C)CCCl)cc6)[nH]c5c4)[nH]c3c2)CC1`, the TGI with SNB-75 CNS came out at 0.897 µM; in the assay with CCRF-CEM leukemia, 0.647 µM; with HT29 colon, 0.675 µM; in the assay on CAKI-1 renal it was 17.1 µM; with HOP-62 NSCLC, 0.645 µM; in the assay on NCI-H23 lung, 7.4 µM. Further, the TGI with HS 578T breast came out at 0.58 µM; with M14 melanoma it was 3.42 µM; in the assay on KM12 colon it was 2.31 µM; with MDA-N it was 0.511 µM.
Regarding `COc1ccc(-c2c(C(C)=O)c(-c3ccccc3)n(C3OC(COC(C)=O)C(OC(C)=O)C(OC(C)=O)C3OC(C)=O)c(=S)c2C#N)cc1O` (centres undefined), the GI50 with CCRF-CEM leukemia was 23.6 µM and 70.2 µM; in the assay on HOP-62 NSCLC, 20.1 µM and > 100 µM; in the assay with M14 melanoma, 36.2 µM and 93 µM. The TGI is greater than 100 µM with CCRF-CEM leukemia; greater than 100 µM with HT29 colon; 79.3 µM and > 100 µM with EKVX NSCLC; greater than 100 µM in the assay with CAKI-1 renal; 45.6 µM and > 100 µM in the assay on HOP-62 NSCLC; greater than 100 µM with NCI-H23 lung. The TGI in the assay with HS 578T breast was greater than 100 µM; in the assay on M14 melanoma, greater than 100 µM; in the assay with KM12 colon, 56.6 µM and > 100 µM; in the assay on MDA-N, 81.5 µM and > 100 µM.
Turning to `COc1ccc(CCN2CCOCC2)cc1`, the TGI in the assay on CCRF-CEM leukemia, in the assay on HT29 colon, in the assay on EKVX NSCLC, with CAKI-1 renal, in the assay with HOP-62 NSCLC and in the assay with NCI-H23 lung was greater than 100 µM in each case. Further, the TGI in the assay with HS 578T breast, with M14 melanoma, in the assay with KM12 colon and in the assay with MDA-N was greater than 100 µM each time.
`CCCCCCCCCCOC1C(C(C)OCCCN(C)C)OC2OC3(CCCCC3)OC21` (centres undefined): the TGI with SNB-75 CNS is 20.1 µM; with CCRF-CEM leukemia it was 25.4 µM; in the assay on HT29 colon, 11 µM; in the assay with EKVX NSCLC, 33 µM; in the assay with CAKI-1 renal, 28 µM; with HOP-62 NSCLC it was 31.4 µM. Further, the TGI was found to be 23.8 µM in the assay on NCI-H23 lung, 35.8 µM in the assay on HS 578T breast, 10.2 µM in the assay with M14 melanoma and 21.8 µM in the assay on MDA-N.
For the compound `Cc1noc(C)c1N=Nc1ccc2nonc2c1N`, the TGI was 42.2 µM in the assay with SNB-75 CNS; greater than 100 µM with CCRF-CEM leukemia; greater than 100 µM with HT29 colon; 9.77 µM in the assay on EKVX NSCLC; greater than 100 µM in the assay on CAKI-1 renal; greater than 100 µM with HOP-62 NSCLC. Besides, the TGI in the assay on NCI-H23 lung, in the assay with M14 melanoma, in the assay on KM12 colon and in the assay on MDA-N was greater than 100 µM each time.
As for `CC(=O)O[C@@H]1CC2[C@@H](CCC3Cc4nc5c(nc4C[C@@]32C)CC2CC[C@@H]3C(CC[C@@]4(C)C3CC[C@@H]4C(C)CCCC(C)C)[C@@]2(C)C5)C2C[C@@H]3OC4(CCC(C)CO4)C(C)[C@@H]3[C@]21C` (some centres undefined), the TGI in the assay with SNB-75 CNS is 37.2 µM; with CCRF-CEM leukemia it was greater than 100 µM; in the assay with HT29 colon it was greater than 100 µM; in the assay on EKVX NSCLC it was greater than 100 µM; with HOP-62 NSCLC, greater than 100 µM; with NCI-H23 lung, greater than 100 µM. The TGI was 96.4 µM with HS 578T breast, greater than 100 µM with M14 melanoma, greater than 100 µM with KM12 colon and greater than 100 µM in the assay on MDA-N.
Regarding `CNC(=O)C(NC(=O)[C@H](CC(C)C)NC(=O)[C@@H](S)CCN1C(=O)N(C)C(C)(C)C1=O)C(C)(C)C` (some centres undefined), the TGI with HT29 colon, with EKVX NSCLC, in the assay with CAKI-1 renal, in the assay on HOP-62 NSCLC, in the assay with NCI-H23 lung and with HS 578T breast was greater than 100 µM throughout. The TGI in the assay on M14 melanoma, in the assay on KM12 colon and in the assay with MDA-N was greater than 100 µM throughout.
For the compound `CC(C)CC(NC(=O)OCc1ccccc1)C(=O)NCCCCC(NC(=O)C(CCCCNC(=O)C(CC(C)C)NC(=O)OCc1ccccc1)NC(=O)C(CCCCNC(=O)C(CC(C)C)NC(=O)OCc1ccccc1)NC(=O)C(CCCCNC(=O)C(CC(C)C)NC(=O)OCc1ccccc1)NC(=O)OC(C)(C)C)C(=O)O` (centres undefined) (Boc-K([Leu-Cbz])K([Leu-Cbz])K([Leu-Cbz])K([Leu-Cbz])-OH; configuration not given here), the TGI with SNB-75 CNS, with CCRF-CEM leukemia, in the assay with HT29 colon, with CAKI-1 renal, in the assay on HOP-62 NSCLC and with NCI-H23 lung was greater than 25 µM each time. Further, the TGI in the assay on M14 melanoma and in the assay with MDA-N was greater than 25 µM throughout.
For the compound `CCC(C)N1CN(c2ccccc2)C2(CCN(CCCC(=O)c3ccc(F)cc3)CC2)C1=O` (centres undefined), the TGI in the assay with SNB-75 CNS is 38.3 µM; in the assay with CCRF-CEM leukemia, greater than 100 µM; in the assay on HT29 colon, 2.35 µM; with EKVX NSCLC it was 36.4 µM; in the assay on CAKI-1 renal, 26.8 µM; in the assay with HOP-62 NSCLC it was 4.51 µM. For the same compound, the TGI with NCI-H23 lung was found to be 14.1 µM; with HS 578T breast, 36.4 µM; with M14 melanoma it was 27.4 µM; with MDA-N, 25.5 µM.
